Values of other authors as cited in EP0266006A2, “Novel hypotensive diuretic peptides” (SHIONOGI SEIYAKU KABUSHIKI KAISHA trading under the name of …, priority 1986, dated 1988).
Where no end group is shown, it is not given here.

Details: said to be so, unlike α type or γ type

For “β-hANP: antiparallel dimer of α-hANP (SLRRSSCFGGRMDRIGAQSGLGCNSFRY; ends and bridges not checked; also: antiparallel dimer of α-hANP; UniProt P01160 124-151, looked up)”, the “diuretic action (duration)” value is listed as “persistent”.
